Values joined by “and” are separate entries in the source; they are usually repeats but may differ in a detail not shown here. Equal entries are not always repeated. Where two headings read alike, the source gives them in different places.
Columns and labels:
[1] = target: recombinant HIV-1 protease (Human immunodeficiency virus type 1 group M subtype B (isolate HXB2) (HIV-1), UniProt P04585); test: Enzyme inhibition of purified HIV-1 protease (SensoLyte 520 HIV-Protease Assay Kit); format: biochemical
Experimental: Protease inhibitors (PI) are used to treat HIV infection by preventing viral assembly and maturation through the inhibition of HIV-1 protease activity. Biochemical assays were performed to evaluate the potential of PEG-PI conjugates to inhibit HIV-1 protease activity, relative to their respective PI parent molecules. Activity assays were performed at using the SensoLyte 520 HIV-Protease Assay Kit (Anaspec Inc., San Jose, Calif.) and recombinant HIV-1 protease. Protease activity was monitored by the formation of a fluorescent reporter product generated during HIV-1 protease-mediated digestion of a quenched, fluorimetric substrate containing the p17/p24 Pr^gag cleavage site.

CEM-SS cells = test: CEM-SS macromolecule synthesis (tritiated precursor incorporation); format: cell-based; conditions: for Thymidine incorportation (CEM-SS) TC50: DNA synthesis; for Uridine incorporation (CEM-SS) TC50: RNA synthesis; for Leucine Incorporation (CEM-SS) TC50: protein synthesis
Experimental: Cellular macromolecule synthesis was evaluated using tritiated precursor incorporation assays. CEM-SS cells (2.5×10^3 cells/well) were cultured in the presence or absence of test compound for 7 days at 37 C, 5% CO2 in a 96-well microtiter plate. On day 6 of the incubation, 1 uCi of [methyl-3H]-thymidine for DNA synthesis, [5-3H]-uridine for RNA synthesis, or [3,4,5-3H]-leucine for protein synthesis was added to compound-treated cells, and the plate was further incubated for 16 hours. The cells were transferred to a glass fiber filtermat using an Inotech cell harvester. The filtermats were washed with distilled water then sealed in a bag with scintillation fluid. Incorporated radioactivity was measured using a Wallac scintillation counter.

PBMCs = test: PBMC cytotoxicity (XTT); format: cell-based, human; conditions: 7 days
Experimental: Mononuclear cells were isolated from fresh human peripheral blood cells by Ficoll-Hypaque density gradient by centrifugation at 600 g for 30 minutes. Banded peripheral blood mononuclear cells (PBMCs) were aspirated from the resulting interface and washed with phosphate buffered saline by low speed centrifugation. Cell viability was evaluated by Trypan Blue dye exclusion. […] Plates were incubated at 37° C., 5% CO2 for 7 days prior to cytotoxicity evaluation. XTT measurement for cytotoxicity.

Caco-2 cells = test: in vitro
Experimental: Absorption properties of various compounds were measured using bi-directional permeability assays in Caco-2 cells. […] The efflux ratio is calculated as the ratio of the Papp(B→A)/Papp(A→B).

HIV-1BaL = test: HIV-1 p24 levels after infection of fresh human monocyte/macrophages; format: cell-based
Experimental: Mononuclear cells were isolated from fresh human peripheral blood cells by Ficoll-Hypaque density gradient by centrifugation at 600 g for 30 minutes. Banded peripheral blood mononuclear cells (PBMCs) were aspirated from the resulting interface and washed with phosphate buffered saline by low speed centrifugation. […] Cells were allowed to attach for 2 to 12 h at 37° C., then washed with Dulbecco's phosphate buffered saline (DPBS). Monocyte-macrophage monolayer formation was induced by incubation in growth medium (RPMI 1640 medium supplemented with 10% fetal bovine serum, 2 mmol/L L-glutamine, 100 Units/mL penicllin and 10 μg/mL streptomycin) for 7 days. Residual PBMCs were removed by washing the cell monolayers with DPBS. After washing, test compound diluted in growth medium was added to cells. Immediately following test compound addition, HIV-1 virus was added to the cells at multiplicity of infection (MOI)=0.05-0.10. After 7 days in culture, HIV-1 replication was quantified by ELISA measurement of cell-free HIV-1 viral capsid protein (p24) in the tissue culture supernatant of treated monocyte-macrophage monolayers. ELISA to quantify p24 was performed according to manufacturer's instructions (Perkin Elmer, Waltham, Mass.). The quantity of free HIV-1 p24 antigen in the sample was determined by comparing its absorbance at 490 nm to that of control standards.
Fresh human monocytes were infected with the BaL strain of HIV-1 in the presence of test compounds. After seven days in culture, HIV-1 replication was evaluated by measurement of HIV-1 viral capsid protein (p24) in the tissue culture supernatant (Table 7). […] A TI was calculated as described above using TC50 values derived from cell toxicity data in response to test compounds in the absence of viral infection.

[2] = tested on: human liver microsomal proteins; test: Microsomal protein binding by equilibrium dialysis; format: in vitro ADME; conditions: human liver microsomes, 3 μM, fraction unbound
Summary of the method: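 Compound at 3 μM final in buffer with or without human liver microsomes, dialysed to equilibrium at 37 °C. Both sides quantified by LC-MS/MS to derive fraction unbound (Fu).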

[3] = tested on: cynomolgus monkey hepatocytes; test: Metabolic stability in cynomolgus monkey hepatocytes; format: in vitro ADME; conditions: 0.1 uM
CYP2C9 = CYP2C9 (Homo sapiens (Human), UniProt P11712); conditions: microsomes
Chain of CYP2C9 (P11712 whole entry): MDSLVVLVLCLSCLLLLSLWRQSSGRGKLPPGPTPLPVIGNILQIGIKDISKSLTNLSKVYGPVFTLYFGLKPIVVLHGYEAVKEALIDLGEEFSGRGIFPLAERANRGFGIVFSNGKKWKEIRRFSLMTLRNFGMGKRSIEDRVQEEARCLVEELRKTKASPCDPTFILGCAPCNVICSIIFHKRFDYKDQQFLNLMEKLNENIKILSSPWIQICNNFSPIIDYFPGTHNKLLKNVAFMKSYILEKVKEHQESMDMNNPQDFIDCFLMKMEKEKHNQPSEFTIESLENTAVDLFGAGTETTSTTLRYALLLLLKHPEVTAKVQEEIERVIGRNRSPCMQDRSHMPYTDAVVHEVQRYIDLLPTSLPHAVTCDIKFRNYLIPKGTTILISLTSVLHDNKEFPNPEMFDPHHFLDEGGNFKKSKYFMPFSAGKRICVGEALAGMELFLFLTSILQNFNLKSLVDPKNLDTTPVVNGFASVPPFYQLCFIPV

dog plasma proteins = test: Plasma protein binding by equilibrium dialysis, dog plasma; format: in vitro ADME; conditions: fraction unbound
Experimental: In assays to estimate binding of test compounds to plasma proteins, test compound solutions (5 μM) are prepared in buffer and species-specific plasma (final DMSO concentration 0.5%). The plasma-containing solution is added to one side of the membrane of an equilibrium dialysis system, and the plasma-free is added to the other side. Dialysis was allowed to reach equilibrium by incubation for two hours at 37° C. The concentration of compound on both sides of the membrane was measured using LC-MS/MS.

[4] = seven days, p24, read-out: Monocyte/HIV-1BaL EC50
[5] = Caco-2 monolayers, apical to basolateral

Structure (SMILES)	IC50 ([1]; IC50 ± SD)	Thymidine incorportation (CEM-SS) TC50 (CEM-SS cells) [nM]	Uridine incorporation (CEM-SS) TC50 (CEM-SS cells) [nM]	Leucine Incorporation (CEM-SS) TC50 (CEM-SS cells) [nM]	XTT (PBMC) TC50 (PBMCs) [nM]	A→B, ×10^−6 (Caco-2 cells; human, Caco-2) [cm/s]	EC50 (HIV-1BaL; Human immunodeficiency virus 1, Monocyte, 168 h, read-out: Monocyte/HIV-1BaL EC50, seven days, p24) [nM]	EC50 (HIV-1BaL; [4]) [nM]	Microsomal Protein Binding Fu ± SD [2]	Efflux ratio (B→A/A→B) (Caco-2 cells; Caco-2 monolayers)	A→B, ×10^−6 (Caco-2 cells; [5]) [cm/s]	CLint ± SEM [3] [μL/min/10^6 cells]	t1/2 [3] [h]	IC50 ([1]; read-out: IC50 ± SD) [nM]	IC50 (CYP2C9) [nM]	Dog Plasma Protein Binding Fu ± SD (dog plasma proteins)
COC(=O)N[C@H](C(=O)N[C@@H](Cc1ccccc1)[C@@H](O)CN(Cc1ccc(-c2ccccn2)cc1)NC(=O)[C@@H](NC(=O)OC)C(C)(C)C)C(C)(C)C [Atazanavir, reference compound]	1.55 nM and 6.92 nM and 5.12 nM and 7.6 nM and 7.37 nM	288300	281400	259600	109400	2.04										
CC(C)CN(C[C@@H](O)[C@H](Cc1ccccc1)NC(=O)O[C@H]1CO[C@H]2OCC[C@H]21)S(=O)(=O)c1ccc(N)cc1 [Darunavir, reference compound]		223200	>400000	285800	328400		< 20									
COCCOCCOCCOc1ccc(C[C@H](NC(=O)O[C@H]2CO[C@H]3OCC[C@H]32)C(O)CN(CC(C)C)S(=O)(=O)c2ccc(N)cc2)cc1 (stereo partly shown) [mPEG3-O-Darunavir]		262900	>400000	>400000	>400000			1030 ± 1450	0.936 ± 0.0109	32	0.51	8.53 ± 0.563	2.72			
COCCOCCOCCOCCOCCNc1ccc(S(=O)(=O)N(CC(C)C)CC(O)[C@H](Cc2ccccc2)NC(=O)O[C@H]2CO[C@H]3OCC[C@H]32)cc1 (stereo partly shown) [mPEG5-N-Darunavir]					223500			303 ± 366	0.864 ± 0.011	21	1.07	26.5 ± 0.942	0.872			
COCCOCCOCCOCCOCCOc1ccc(C[C@H](NC(=O)O[C@H]2CO[C@H]3OCC[C@H]32)C(O)CN(CC(C)C)S(=O)(=O)c2ccc(N)cc2)cc1 (stereo partly shown) [mPEG5-O-Darunavir]		165700	>400000	>400000	>400000			263 ± 155	0.804 ± 0.253							
COCCOCCOCCOCCOCCOCCOCCNc1ccc(S(=O)(=O)N(CC(C)C)CC(O)[C@H](Cc2ccccc2)NC(=O)O[C@H]2CO[C@H]3OCC[C@H]32)cc1 (stereo partly shown) [mPEG7-N-Darunavir]					381300			577 ± 423	0.973 ± 0.0139		0.32	0.286 ± 0.504	80.83			
COCCOC(=O)NC(C(=O)NC(Cc1ccccc1)C(O)CN(Cc1ccc(-c2ccccn2)cc1)NC(=O)C(NC(=O)OC)C(C)(C)C)C(C)(C)C (stereo not shown) [mono-mPEG1-Atazanavir]						1.25		< 20		26		70.3 ± 0.0027	0.328	2.82	> 25000	0.208 ± 0.0317
COCCOCCOCCOC(=O)NC(C(=O)NC(Cc1ccccc1)C(O)CN(Cc1ccc(-c2ccccn2)cc1)NC(=O)C(NC(=O)OC)C(C)(C)C)C(C)(C)C (stereo not shown) [mono-mPEG3-Atazanavir, {1-[N′-[2-Hydroxy-3-(2-{2-[2-(2-methoxy-ethoxy)-ethoxy]-ethoxycarbonylamino}-3,3-dimethyl-butyrylamino)-4-phenyl-butyl]-N′-(4-pyridin-2-yl-benzyl)-hydrazinocarbonyl]-2,2-dimethyl-propyl}-carbamic Acid Methyl Ester]		396200	396600	>400000	338900							21.0 ± 0.00203	1.1			
COCCOCCOCCOCCOCCOC(=O)NC(C(=O)NC(Cc1ccccc1)C(O)CN(Cc1ccc(-c2ccccn2)cc1)NC(=O)C(NC(=O)OC)C(C)(C)C)C(C)(C)C (stereo not shown) [mono-mPEG5-Atazanavir]						0.12		56.6 ± 12.2		88		13.8 ± 0.00163	1.67	2.91	23700	0.695 ± 0.118
COCCOCCOCCOCCOCCOCCOC(=O)NC(C(=O)NC(Cc1ccccc1)C(O)CN(Cc1ccc(-c2ccccn2)cc1)NC(=O)C(NC(=O)OC)C(C)(C)C)C(C)(C)C (stereo not shown) [mono-mPEG6-Atazanavir]						0.11		43.3 ± 20.4		68		0.245 ± 0.000245	94.33	1.31	> 25000	0.497 ± 0.0386
COCCOCCOCCOCCOCCOCCOCCOC(=O)NC(C(=O)NC(Cc1ccccc1)C(O)CN(Cc1ccc(-c2ccccn2)cc1)NC(=O)C(NC(=O)OC)C(C)(C)C)C(C)(C)C (stereo not shown) [mono-mPEG7-Atazanavir]						0.10		137 ± 60.1		52				1.29	> 25000	0.306 ± 0.0478

Source: patent publication US10806794B2, “Protease inhibitors having enhanced features” (priority 2008, dated 2020)
